# Laboratory results: PMC8661510, “Computational study, synthesis and evaluation of active peptides derived from Parasporin-2 and spike protein from Alphacoronavirus against colorectal cancer cells” (Bioscience Reports, 2021)
# Read-outs that look alike come from different tables or passages of the source. No end group written: not given here.
# What was measured:
# SW480 cells [1] = settings: for EC50: 48 h; for percentage of viability SW480 cells: human, 150 µM
# Hemolytic activity assay = assay type: cell-based; settings: human, erythrocytes; 150 μM peptide; relative to 0.1% Triton X-100; read-out: %HC50 at 150 μM (percentage of hemolysis)
# SW620 cells [2] = settings: for EC50: 48 h; for percentage of cell viability SW620 cells: human, 150 µM
# SW620 cells [3] = experiment: cells; settings: Homo sapiens, SW-620, 48 h
# SW620 cells [4] = experiment: Annexin V-Cy3/6-CFDA staining, SW620; assay type: cell-based, Human; settings: EC50 concentration, 24 and 48 h
# Method: (§1) The presence of phosphatidylserine at the cell surface was detected by phosphatidylserine binding protein annexin V conjugated with Cy3 using the commercially available Annexin V-Cy3 apoptosis detection kit (APOAC, Apoptosis Detection Kit, Sigma). […] The PBS and binding buffer were used to wash the adherent cells and the washed cell adherents were suspended in 50 µl of Ann-Cy3 and 6-CFDA. Then, the plates were incubated for 10 min in the dark. Afterwards, the excess label was removed by washing the cells with binding buffer. EVOS M7000 digital inverted fluorescence microscope (ThermoFisher Scientific; Waltham, MA, U.S.A.) was used to observe Ann-Cy3 and 6-CFDA-labeled cells. This assay allowed one to differentiate live cells (green), necrotic cells (red), and apoptotic cells (red nuclei and green cytoplasm). The percentage of cells reflecting apoptotic and necrotic cells was manually calculated. Data were collected for three replicates and used to calculate the respective means and standard deviations.
# SW480 cells [5] = experiment: cells; settings: Homo sapiens, SW480, 48 h
# SW480 cells [6] = experiment: Annexin V-Cy3/6-CFDA staining, SW480; assay type: cell-based, Human; settings: EC50 concentration, 24 and 48 h
# Method: as §1
molecule,measurement,setting,value
"H-FLGWLFKVASK-NH2 [A4W-GGN5, FLGWLFKVASK-NH2, reference compound]",EC50,SW480 cells [1],98.6 ± 1.17 µM
same,percentage of viability SW480 cells,SW480 cells [1],41.8%
same,hemolysis at 150 μM,Hemolytic activity assay,23%
same,EC50,SW620 cells [2],22.1 ± 1.63 µM
same,percentage of cell viability SW620 cells,SW620 cells [2],32.2%
"PARDVLNTTSG-NH2 [P264-G274, PARDVLNTTSG-NH2]",EC50,SW480 cells [1],90.98 ± 0.75 µM
same,percentage of viability SW480 cells,SW480 cells [1],41.6%
same,hemolysis at 150 μM,Hemolytic activity assay,12.2%
same,EC50,SW620 cells [2],11.3 ± 0.52 µM
same,percentage of cell viability SW620 cells,SW620 cells [2],16.5%
"O=c1[nH]cc(F)c(=O)[nH]1 [5-FU, 5-Fluorouracil]",EC50,SW620 cells [3]; read-out: EC50 SW620,11.9 ± 1.2 µM
same,viability at 150 µM,SW620 cells [3]; read-out: percentage of cell viability SW620 cells,2.8%
same,Annexin V-Cy3/6-CFDA staining result,SW620 cells [4],Same results
same,EC50,SW480 cells [5]; read-out: EC50 SW480,24.4 ± 0.82 µM
same,viability at 150 µM,SW480 cells [5]; read-out: percentage of viability SW480 cells,18.9%
same,Annexin V-Cy3/6-CFDA staining result,SW480 cells [6],Same results
"NNETYFNAVKP-NH2 [Loop1-PS2Aa, NNETYFNAVKP-NH2]",EC50,SW480 cells [1],23.8 ± 1.25 µM
same,percentage of viability SW480 cells,SW480 cells [1],16%
same,hemolysis at 150 μM,Hemolytic activity assay,18.1%
same,EC50,SW620 cells [2],106 ± 1.67 µM
same,percentage of cell viability SW620 cells,SW620 cells [2],46.8%
"TYFNAVKPPITA-NH2 [Loop2-PS2Aa, TYFNAVKPPITA-NH2]",EC50,SW480 cells [1],93 ± 0.98 µM
same,percentage of viability SW480 cells,SW480 cells [1],39.5%
same,hemolysis at 150 μM,Hemolytic activity assay,9.4%
same,EC50,SW620 cells [2],16 ± 0.69 µM
same,percentage of cell viability SW620 cells,SW620 cells [2],24.1%
"FKPQSGGGKCF-NH2 [Loop1-HCoV-229E, FKPQSGGGKCF-NH2]",EC50,SW480 cells [1],125 ± 1.32 µM
same,percentage of viability SW480 cells,SW480 cells [1],56.2%
same,hemolysis at 150 μM,Hemolytic activity assay,9.2%
same,EC50,SW620 cells [2],> 150 µM
same,percentage of cell viability SW620 cells,SW620 cells [2],55.2%
